Assay results reported in ChEMBL document CHEMBL5696442, “Discovery of type II inhibitors of TGFβ-activated kinase 1 (TAK1) and mitogen-activated protein kinase kinase kinase kinase 2 (MAP4K2)” (J Med Chem, 2015).
Activity calls are given as the source filed them. No cut-off for these calls is given here.

Tests used:
[1] = target: Microtubule-associated serine/threonine-protein kinase 2 (Homo sapiens) (UniProt Q6P0Q8); test: Inhibition of MAST2 Lys2 labeling site harbouring DLKPDNLLITSMGHIK in human Huh-7 cells at 1 uM by KiNativ Profiling analysis relative to control; assay type: cell-based
[2] = target: T1, Dual specificity mitogen-activated protein kinase kinase 3 (Homo sapiens) (UniProt P46734); test: Inhibition of MAP2K3 ACT labeling site in human Huh-7 cell lysate at 1 uM by KiNativ Profiling analysis relative to control; assay type: subcellular
T1 sequence (whole entry): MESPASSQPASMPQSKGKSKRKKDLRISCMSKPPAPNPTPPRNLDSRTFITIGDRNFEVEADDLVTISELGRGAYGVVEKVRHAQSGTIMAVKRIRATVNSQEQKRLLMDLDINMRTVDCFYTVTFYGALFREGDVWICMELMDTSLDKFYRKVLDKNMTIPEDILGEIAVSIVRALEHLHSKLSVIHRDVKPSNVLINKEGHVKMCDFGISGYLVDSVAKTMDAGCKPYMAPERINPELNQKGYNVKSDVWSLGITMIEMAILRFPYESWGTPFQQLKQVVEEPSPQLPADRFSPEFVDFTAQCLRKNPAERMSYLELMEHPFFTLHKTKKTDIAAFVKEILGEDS

[3] = target: Serine/threonine-protein kinase 4 (Homo sapiens) (UniProt Q13043); test: Inhibition of MST1 Lys1 labeling site harbouring AIHKETGQIVAIKQVPVESDLQEIIK in human Huh-7 cells at 1 uM by KiNativ Profiling analysis relative to control
[4] = test system: Proto-oncogene tyrosine-protein kinase receptor Ret (Homo sapiens), P07949 [V804L]; test: Inhibition of RET V804L mutant (unknown origin) at 1 uM by Ambit Kinomescan binding assay relative to control; values are per cent of control
[5] = target: T2, Inhibitor of nuclear factor kappa-B kinase subunit beta (Homo sapiens) (UniProt O14920); test: Inhibition of IKK-beta (unknown origin) at 1 uM by Ambit Kinomescan binding assay relative to control; values are per cent of control
T2 sequence (whole entry): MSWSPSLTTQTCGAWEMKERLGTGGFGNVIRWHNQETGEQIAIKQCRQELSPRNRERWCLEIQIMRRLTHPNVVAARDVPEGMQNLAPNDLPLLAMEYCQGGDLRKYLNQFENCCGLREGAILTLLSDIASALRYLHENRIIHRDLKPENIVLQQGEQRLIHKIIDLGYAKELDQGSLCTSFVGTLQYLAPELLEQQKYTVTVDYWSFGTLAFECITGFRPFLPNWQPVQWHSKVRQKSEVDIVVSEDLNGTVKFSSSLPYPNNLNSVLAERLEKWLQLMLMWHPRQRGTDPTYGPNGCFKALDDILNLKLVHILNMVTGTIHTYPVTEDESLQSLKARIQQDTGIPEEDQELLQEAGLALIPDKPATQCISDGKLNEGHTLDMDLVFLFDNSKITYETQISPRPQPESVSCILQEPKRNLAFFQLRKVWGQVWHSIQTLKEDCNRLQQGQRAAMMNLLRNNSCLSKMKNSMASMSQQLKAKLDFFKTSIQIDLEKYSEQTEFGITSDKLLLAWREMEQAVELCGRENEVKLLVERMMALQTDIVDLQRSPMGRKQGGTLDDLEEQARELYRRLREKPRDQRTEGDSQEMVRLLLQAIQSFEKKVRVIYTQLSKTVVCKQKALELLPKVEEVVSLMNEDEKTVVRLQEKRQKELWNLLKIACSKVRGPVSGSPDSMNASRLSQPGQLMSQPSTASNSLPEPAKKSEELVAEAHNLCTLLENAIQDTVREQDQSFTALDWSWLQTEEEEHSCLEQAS

[6] = target: T3, Serine/threonine-protein kinase 3 (Homo sapiens) (UniProt Q13188); test: Inhibition of MST2 (unknown origin) at 1 uM by Ambit Kinomescan binding assay relative to control
T3 sequence (whole entry): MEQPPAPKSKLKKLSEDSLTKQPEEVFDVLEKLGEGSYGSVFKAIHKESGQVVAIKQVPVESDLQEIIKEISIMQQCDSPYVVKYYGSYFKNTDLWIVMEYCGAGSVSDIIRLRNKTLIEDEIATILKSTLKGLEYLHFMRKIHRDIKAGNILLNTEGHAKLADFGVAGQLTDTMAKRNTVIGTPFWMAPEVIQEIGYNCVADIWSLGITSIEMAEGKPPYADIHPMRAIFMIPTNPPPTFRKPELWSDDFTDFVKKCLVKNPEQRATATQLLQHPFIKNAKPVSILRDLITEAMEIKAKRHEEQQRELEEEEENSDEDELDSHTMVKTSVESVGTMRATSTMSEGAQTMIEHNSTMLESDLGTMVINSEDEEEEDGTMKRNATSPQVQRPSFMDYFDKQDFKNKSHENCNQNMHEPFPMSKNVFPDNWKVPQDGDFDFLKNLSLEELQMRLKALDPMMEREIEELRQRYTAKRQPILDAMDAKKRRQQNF

[7] = target: Serine/threonine-protein kinase 4 (Homo sapiens) (UniProt Q13043); test: Inhibition of MST1 Lys2 labeling site harbouring DIKAGNILLNTEGHAK in human A-375 cells at 0.5 uM by KiNativ Profiling analysis relative to control
[8] = target: Mitogen-activated protein kinase kinase kinase 13 (Homo sapiens) (UniProt O43283); test: Inhibition of LZK (unknown origin) at 1 uM by Ambit Kinomescan binding assay relative to control
[9] = target: MAP/microtubule affinity-regulating kinase 4 (Homo sapiens) (UniProt Q96L34); test: Inhibition of MARK4 (unknown origin) at 1 uM by Ambit Kinomescan binding assay relative to control
[10] = target: Casein kinase I isoform epsilon (Homo sapiens) (UniProt P49674); test: Inhibition of CK1epsilon Lys2 labeling site in human A-375 cells at 0.5 uM by KiNativ Profiling analysis relative to control; assay type: cell-based
[11] = target: p38 delta/gamma (Homo sapiens) (UniProt O15264+P53778); test: Inhibition of p38d/g K2 labeling site in human Huh-7 cells at 10 uM by KiNativ Profiling analysis relative to control; assay type: cell-based
[12] = target: Serine/threonine-protein kinase pim-3 (Homo sapiens) (UniProt Q86V86); test: Inhibition of PIM3 (unknown origin) at 10 uM by Ambit Kinomescan binding assay
[13] = target: Serine/threonine-protein kinase pim-2 (Homo sapiens) (UniProt Q9P1W9); test: Inhibition of PIM2 (unknown origin) at 10 uM by Ambit Kinomescan binding assay
[14] = target: Serine/threonine-protein kinase 26 (Homo sapiens) (UniProt Q9P289); test: Inhibition of MST4 K1 labeling site in human Huh-7 cells at 1 uM by KiNativ Profiling analysis relative to control; assay type: cell-based
[15] = target: Activin receptor type-1 (Homo sapiens) (UniProt Q04771); test: Inhibition of ACVR1 (unknown origin) at 10 uM by Ambit Kinomescan binding assay
Chain of Activin receptor type-1 (Homo sapiens) (Q04771 whole entry): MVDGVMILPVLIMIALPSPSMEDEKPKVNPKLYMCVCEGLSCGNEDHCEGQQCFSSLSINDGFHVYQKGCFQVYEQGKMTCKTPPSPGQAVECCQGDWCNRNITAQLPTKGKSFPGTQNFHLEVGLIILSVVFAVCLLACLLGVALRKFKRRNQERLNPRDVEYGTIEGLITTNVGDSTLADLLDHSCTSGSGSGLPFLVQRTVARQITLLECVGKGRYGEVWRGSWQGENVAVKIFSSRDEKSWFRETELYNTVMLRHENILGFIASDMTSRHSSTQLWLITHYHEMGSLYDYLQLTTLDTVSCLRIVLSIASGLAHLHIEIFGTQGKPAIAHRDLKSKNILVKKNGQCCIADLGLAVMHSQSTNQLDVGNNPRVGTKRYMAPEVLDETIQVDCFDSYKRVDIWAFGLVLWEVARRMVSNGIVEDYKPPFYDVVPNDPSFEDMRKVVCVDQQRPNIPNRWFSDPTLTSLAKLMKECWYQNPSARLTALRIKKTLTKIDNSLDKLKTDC

Chain of Serine/threonine-protein kinase 4 (Homo sapiens) (Q13043 whole entry, looked up): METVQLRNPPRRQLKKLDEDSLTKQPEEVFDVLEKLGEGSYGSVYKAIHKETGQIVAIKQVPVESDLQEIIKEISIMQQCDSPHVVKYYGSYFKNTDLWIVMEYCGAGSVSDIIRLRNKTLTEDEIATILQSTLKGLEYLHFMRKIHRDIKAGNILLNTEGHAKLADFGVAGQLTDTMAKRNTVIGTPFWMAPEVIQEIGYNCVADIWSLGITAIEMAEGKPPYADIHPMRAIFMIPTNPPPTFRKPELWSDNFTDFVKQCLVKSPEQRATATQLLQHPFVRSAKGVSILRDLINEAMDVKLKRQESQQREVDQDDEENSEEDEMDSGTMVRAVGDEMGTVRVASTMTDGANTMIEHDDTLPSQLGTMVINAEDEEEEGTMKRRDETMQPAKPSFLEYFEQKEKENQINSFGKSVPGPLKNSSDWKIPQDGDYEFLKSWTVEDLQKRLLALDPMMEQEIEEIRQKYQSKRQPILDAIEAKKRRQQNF
Chain of Serine/threonine-protein kinase pim-2 (Homo sapiens) (Q9P1W9 whole entry, looked up): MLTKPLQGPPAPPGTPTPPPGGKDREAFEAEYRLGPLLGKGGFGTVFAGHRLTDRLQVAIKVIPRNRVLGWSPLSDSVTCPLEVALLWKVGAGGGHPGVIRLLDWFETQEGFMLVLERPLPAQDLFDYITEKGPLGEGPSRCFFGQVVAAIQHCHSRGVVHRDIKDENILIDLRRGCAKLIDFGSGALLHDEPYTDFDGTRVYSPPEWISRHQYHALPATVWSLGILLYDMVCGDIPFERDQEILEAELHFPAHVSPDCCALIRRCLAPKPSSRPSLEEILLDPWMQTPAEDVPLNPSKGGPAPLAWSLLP
Chain of Casein kinase I isoform epsilon (Homo sapiens) (P49674 whole entry, looked up, canonical isoform): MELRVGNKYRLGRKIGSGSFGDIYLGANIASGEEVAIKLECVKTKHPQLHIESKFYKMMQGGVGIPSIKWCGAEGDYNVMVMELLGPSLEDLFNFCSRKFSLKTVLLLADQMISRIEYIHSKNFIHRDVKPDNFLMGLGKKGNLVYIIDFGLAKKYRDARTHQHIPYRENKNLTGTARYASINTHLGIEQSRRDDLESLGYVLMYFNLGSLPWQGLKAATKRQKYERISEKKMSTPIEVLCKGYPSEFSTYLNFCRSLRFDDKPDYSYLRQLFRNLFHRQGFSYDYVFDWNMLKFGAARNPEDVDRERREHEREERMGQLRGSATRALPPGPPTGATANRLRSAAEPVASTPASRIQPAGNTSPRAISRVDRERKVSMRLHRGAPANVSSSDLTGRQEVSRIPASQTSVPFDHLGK
Chain of Proto-oncogene tyrosine-protein kinase receptor Ret (Homo sapiens), P07949 [V804L] (P07949 whole entry V804L): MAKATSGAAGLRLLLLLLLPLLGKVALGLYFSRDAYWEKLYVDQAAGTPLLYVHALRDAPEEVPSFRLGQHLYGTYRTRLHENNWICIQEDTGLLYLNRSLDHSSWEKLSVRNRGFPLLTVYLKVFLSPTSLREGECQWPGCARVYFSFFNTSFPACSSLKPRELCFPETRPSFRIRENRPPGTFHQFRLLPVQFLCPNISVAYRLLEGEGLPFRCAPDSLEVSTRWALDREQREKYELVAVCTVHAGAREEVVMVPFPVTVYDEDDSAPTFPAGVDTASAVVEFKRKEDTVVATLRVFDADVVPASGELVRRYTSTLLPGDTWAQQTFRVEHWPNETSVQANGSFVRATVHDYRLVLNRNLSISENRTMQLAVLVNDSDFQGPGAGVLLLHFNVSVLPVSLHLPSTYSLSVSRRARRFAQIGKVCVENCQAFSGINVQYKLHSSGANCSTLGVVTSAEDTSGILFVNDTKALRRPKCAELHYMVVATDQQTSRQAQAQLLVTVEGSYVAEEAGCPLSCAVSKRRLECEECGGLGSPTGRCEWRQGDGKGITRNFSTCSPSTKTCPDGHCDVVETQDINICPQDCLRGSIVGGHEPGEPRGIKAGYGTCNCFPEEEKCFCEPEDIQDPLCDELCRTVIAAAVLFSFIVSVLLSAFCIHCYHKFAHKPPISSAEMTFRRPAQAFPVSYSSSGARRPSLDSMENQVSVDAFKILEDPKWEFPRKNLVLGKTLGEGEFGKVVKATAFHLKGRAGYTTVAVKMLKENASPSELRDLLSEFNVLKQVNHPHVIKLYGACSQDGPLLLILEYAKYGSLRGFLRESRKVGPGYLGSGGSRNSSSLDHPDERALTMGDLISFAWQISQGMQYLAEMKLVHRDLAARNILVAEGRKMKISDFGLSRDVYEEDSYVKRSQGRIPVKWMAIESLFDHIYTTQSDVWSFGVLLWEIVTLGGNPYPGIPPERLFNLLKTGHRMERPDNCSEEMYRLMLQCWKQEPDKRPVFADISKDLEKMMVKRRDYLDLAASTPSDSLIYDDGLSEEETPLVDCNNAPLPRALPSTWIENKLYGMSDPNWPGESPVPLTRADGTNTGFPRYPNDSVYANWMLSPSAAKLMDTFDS
Chain of Serine/threonine-protein kinase 26 (Homo sapiens) (Q9P289 2-416 limits assumed): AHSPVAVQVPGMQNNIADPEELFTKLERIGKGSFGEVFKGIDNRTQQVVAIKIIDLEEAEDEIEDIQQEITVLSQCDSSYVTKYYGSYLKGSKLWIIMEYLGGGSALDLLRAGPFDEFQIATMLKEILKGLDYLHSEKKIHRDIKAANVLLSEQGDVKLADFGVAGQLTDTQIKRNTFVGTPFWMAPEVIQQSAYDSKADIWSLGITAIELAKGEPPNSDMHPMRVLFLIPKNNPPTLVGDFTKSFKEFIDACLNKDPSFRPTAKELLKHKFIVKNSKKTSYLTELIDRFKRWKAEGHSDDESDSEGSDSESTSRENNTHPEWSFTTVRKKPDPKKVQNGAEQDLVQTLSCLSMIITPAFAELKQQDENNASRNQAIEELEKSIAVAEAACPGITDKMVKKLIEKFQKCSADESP
Chain of MAP/microtubule affinity-regulating kinase 4 (Homo sapiens) (Q96L34 whole entry, canonical isoform): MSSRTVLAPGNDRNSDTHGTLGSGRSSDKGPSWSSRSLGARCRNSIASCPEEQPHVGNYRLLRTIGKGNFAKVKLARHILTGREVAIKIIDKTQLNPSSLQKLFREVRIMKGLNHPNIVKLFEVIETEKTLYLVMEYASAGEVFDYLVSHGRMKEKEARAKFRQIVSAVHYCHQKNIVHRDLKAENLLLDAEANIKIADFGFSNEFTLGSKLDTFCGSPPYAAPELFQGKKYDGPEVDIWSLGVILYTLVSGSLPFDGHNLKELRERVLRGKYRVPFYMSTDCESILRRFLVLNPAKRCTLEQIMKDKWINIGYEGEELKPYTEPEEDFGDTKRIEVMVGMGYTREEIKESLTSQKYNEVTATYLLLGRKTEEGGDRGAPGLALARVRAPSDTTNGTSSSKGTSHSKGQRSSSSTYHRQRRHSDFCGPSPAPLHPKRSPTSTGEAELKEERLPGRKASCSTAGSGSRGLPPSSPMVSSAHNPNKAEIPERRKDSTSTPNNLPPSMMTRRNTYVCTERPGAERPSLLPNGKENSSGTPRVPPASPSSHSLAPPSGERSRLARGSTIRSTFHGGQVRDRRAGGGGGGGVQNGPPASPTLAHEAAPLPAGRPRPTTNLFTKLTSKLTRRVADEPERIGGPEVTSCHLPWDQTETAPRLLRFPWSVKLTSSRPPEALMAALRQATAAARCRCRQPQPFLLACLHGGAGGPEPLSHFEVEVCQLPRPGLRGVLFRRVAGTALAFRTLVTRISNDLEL

Work on `CNc1cc(Oc2cc(C(=O)Nc3cc(N4CCN(C)CC4)cc(C(F)(F)F)c3)ccc2C)ncn1` yielded an inhibition [1] of 53.8%, an inhibition [2] of 0.6% and an inhibition [3] of 9.9%.

`CCN1CCN(Cc2ccc(NC(=O)c3ccc(C)c(/C=C/c4cnc5[nH]ccc5c4OC)c3)cc2C(F)(F)F)CC1` gave a percent of control [4] of 3.4%, a residual activity [5] of 5.7% and an inhibition [6] of 100%. It also gave an inhibition [7] of -9.8%, an inhibition [8] of 82% and an inhibition [9] of 81%.

For `CCN1CCN(Cc2ccc(NC(=O)c3ccc(C)c(Oc4ccnc5[nH]ccc45)c3)cc2C(F)(F)F)CC1`, the inhibition [10] was 3.3%, the inhibition [11] was 65% and the inhibition [12] was “inactive”. The inhibition [13] was “inactive”, the inhibition [14] was 5.3% and the inhibition [15] was “inactive”.
